In one assay the target is T1, chemokine receptor CCR3 (Homo sapiens, UniProt P51677).
T1 construct: expressed in transfected cells
T1 sequence (P51677 1-355): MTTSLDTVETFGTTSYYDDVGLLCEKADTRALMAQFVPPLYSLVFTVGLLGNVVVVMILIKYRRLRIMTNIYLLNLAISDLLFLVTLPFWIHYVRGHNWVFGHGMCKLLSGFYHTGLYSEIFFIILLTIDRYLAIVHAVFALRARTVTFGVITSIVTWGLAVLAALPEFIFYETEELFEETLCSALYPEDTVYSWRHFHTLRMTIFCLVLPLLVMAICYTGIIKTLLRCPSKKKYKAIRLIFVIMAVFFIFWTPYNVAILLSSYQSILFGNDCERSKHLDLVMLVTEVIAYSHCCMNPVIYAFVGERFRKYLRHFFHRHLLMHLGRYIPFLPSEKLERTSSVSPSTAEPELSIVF
Put plainly: Inhibitory activity against binding to the chemokine receptor CCR3 ([125I]Eotaxin binding, CHO cells). The conditions noted are these: 50 pM [125I]Eotaxin, 90 minutes, 37° C, pH 7.4, CHO cells expressing CCR3; read-out: 50% inhibitory concentration (IC50 value) against [125I]Eotaxin binding. Here is the method: Further, an expression vector of a gene which codes chemokine receptor CCR3 was transfected to CHO cell by using lipofectamine to obtain a stable cell strain resistant against 0.5 mg/ml of G418. The stable cell strain, 50 pM[^125 I]Eotaxin (2000 Ci/mmol, manufactured by Amersham) and a test compound were suspended in 0.2 ml of Krebs-Ringer/0.1% bovine serum albumin/0.1% glucose (pH 7.4) and incubated for 90 minutes at a temperature of 37° C. Then, it was subjected to filtration by means of a glass filter GF/C which was preliminarily impregnated in 1% polyethyleneimine, and washed with 1 ml of Krebs-Ringer/0.1% bovine serum albumin/0.1% glucose (pH 7.4), whereby radio activity on the glass filter was measured. The binding affinity to the chemokine receptors CCR3 was shown as a 50% inhibitory concentration (IC50 value) of the compounds of the present invention against [^125 I]Eotaxin binding.

A further assay concerns CCR3. Put plainly: CCR3 antagonist activities (Eotaxin-induced intracellular calcium increase in human eosinophils). It is filed as cell-based. The conditions noted are these: 41 nM compound 5 minutes before agonist Eotaxin (10 nM), Fura2. As for the experimental part: By using human eosinophil which stably express CCR3, the activity of the compounds of the present invention to intracellular calcium concentration was measured by the following method. […] of Fura2 acetoxymethyl ester (produced by Dojin Kagaku Laboratories) was added to eosinophils and incubated for 30 minutes at a temperature of 37° C. Then, the mixture was excited by irradiation with light at 340 nm and 380 nm, fluorescence at 500 nm was measured, 340/380 ratio was monitored, thereby intracellular calcium concentration was calculated.
(In general: Calcium assays in cells follow changes in intracellular calcium, usually with a dye or a luminescent sensor.)

Assay [1] deals with T2, human chemokine receptor CCR1 (Homo sapiens, UniProt P32246).
T2 construct: expressed in transfected cells
T2 sequence (P32246 1-355): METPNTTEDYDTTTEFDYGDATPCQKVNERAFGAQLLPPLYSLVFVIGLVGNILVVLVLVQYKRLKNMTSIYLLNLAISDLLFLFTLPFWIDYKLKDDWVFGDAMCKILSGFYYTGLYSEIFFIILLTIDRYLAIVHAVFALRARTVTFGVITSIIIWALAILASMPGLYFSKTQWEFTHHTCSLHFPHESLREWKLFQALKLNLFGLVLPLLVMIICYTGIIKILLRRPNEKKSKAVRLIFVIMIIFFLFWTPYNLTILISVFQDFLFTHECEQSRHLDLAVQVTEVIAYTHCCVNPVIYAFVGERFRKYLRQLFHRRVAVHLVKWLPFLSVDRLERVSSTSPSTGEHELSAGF
Put plainly: Inhibitory activity against binding to the chemokine receptor CCR1 ([125I]MIP-1 alpha binding, CHO cells). The conditions noted are these: 50 pM [125I]MIP-1 alpha, 90 minutes, 37° C, pH 7.4, CHO cells expressing CCR1; read-out: 50% inhibitory concentration (IC50 value) against [125I]MIP-1 alpha binding. Here is the method: cDNAs which code human chemokine receptor CCR1 was subcloned to Hind III/Xba I part of the expression vector pRc/CMV (Invitrogen) to prepare pRc/CMV CCR1. Then, pRc/CMV CCR1 was transfected to CHO cells by using lipofectamine (GIBCO) to obtain a stable cell strain resistant against 0.5 mg/ml of G418.
The stable cell strain, 50 pM[^125 I]MIP-1 alpha (2000 Ci/mmol, manufactured by New England Nuclear) and a test compound were suspended in 0.2 ml of Krebs-Ringer/0.1% bovine serum albumin/0.1% glucose (pH 7.4), and incubated for 90 minutes at a temperature of 37° C. Then, it was subjected to filtration by means of a glass filter GF/C which was preliminarily impregnated in 1% of polyethyleneimine, and washed with 1 ml of Krebs-Ringer/0.1% bovine serum albumin/0.1% glucose (pH 7.4), whereby radio activity on the glass filter was measured. The binding affinity to the chemokine receptors CCR1 was shown as a 50% inhibitory concentration (IC50 value) of the compound of the present invention against [^125 I]MIP-1 alpha binding.

A further assay concerns chemokine receptor CCR1. Put plainly: Activities to intracellular cyclic AMP concentration (CHO cells stably expressing CCR1). It is filed as cell-based, human. As for the experimental part:
By using CHO cells which stably express the chemokine receptor CCR1, the activity of the test compounds to intracellular cyclic AMP concentration had been studied.
The CHO cells was suspended in Locke's solution (pH 7.4:154 mM of sodium chloride, 5.6 mM of potassium chloride, 2 mM of calcium chloride, 1 mM of magnesium chloride, 0.1% glucose, 10 mM of Hepes and 0.3 mM of isobutylmethylxanthine), and preliminarily incubated at a temperature of 37° C. for 5 minutes, and 100 nM of hMIP-1 alpha and 0.01 mM of Forskolin were added thereto. The reaction was kept for 10 minutes and terminated by adding trichloroacetic acid. The reaction mixture was centrifuged at 15000 rpm for 5 minutes and supernatant was obtained. Trichloroacetic acid in the supernatant was removed by extraction with diethyl ether, and the supernatant was evaporated to dryness by centrifugal evaporator. The cyclic AMP concentration in the sample thus obtained was measured by cyclic AMP kit (produced by Amersham). The activity of test compounds to the cyclic AMP concentration was obtained by studying antagonism against hMIP-1 alpha by adding 0.01 mM of the test compounds 5 minutes before adding 100 nM of hMIP-1 alpha.

Setting [2] is: control reactions: 0.01 mM Forskolin solely, or with 100 nM hMIP-1 alpha, no test compound.

With `CC[N+]1(CC2CCCCCCC2)CCC(NC(=O)C2c3cc(Br)ccc3Oc3ccc(Br)cc32)CC1` (single isomer, unassigned) [Example 26 (named cis for convenience), cis*-1-cyclooctylmethyl-1-ethyl-4-(2,7-dibromoxanthene-9-carboxamido)piperidinium iodide], the IC50 at chemokine receptor CCR3 came to 2.7 nM; in assay [1], 1.9 nM. Besides, in the assay with CCR3, the “inhibitory ratio (%) of increase in the concentration of intracellular calcium” value was 51%. On to `CC[N+]1(CC2CCCCCCC2)CCC(NC(=O)C2c3ccccc3Oc3ccccc32)CC1.[I-]` (stereo not drawn) [Example 12, 1-cyclooctylmethyl-1-ethyl-4-(xanthene-9-carboxamido)piperidinium iodide], for which the IC50 stood at 40 nM on chemokine receptor CCR3 and 5.2 nM in assay [1]. Moreover, in the assay on chemokine receptor CCR1 (0.01 mM Forskolin + 100 nM hMIP-1 alpha + 0.01 mM test compound added 5 minutes before hMIP-1 alpha), the cAMP concentration is given as 81.6 +/- 4.2 pmol/10^6 cells.

On to `C[N+]1(CC2CCCCCCC2)CCC(NC(=O)C2c3cc(Br)ccc3Oc3ccc(Br)cc32)CC1` (stereo not drawn) [Example 22, 1-cyclooctylmethyl-1-methyl-4-(2,7-dibromoxanthene-9-carboxamido)piperidinium iodide], for which the figures for the IC50 (at chemokine receptor CCR3; in assay [1]) were 13 nM and 3.9 nM, respectively. With `CC[N+]1(CC2=CCCCCCC2)CCC(NC(=O)C2c3cc(Cl)ccc3Oc3ccc(Cl)cc32)CC1` (stereo not drawn) [Example 59 (named cis for convenience), cis*-1-(1-cyclooctenylmethyl)-1-ethyl-4-(2,7-dichloroxanthene-9-carboxamido)piperidinium iodide], the “inhibitory ratio (%) of increase in the concentration of intracellular calcium” value in the assay on CCR3 was determined as 97%. For `O=C(NC1CCN(CC2=CCCCCCCC2)CC1)C1c2ccccc2Oc2ccccc21` [Example 61 (named cis for convenience)], the IC50 is 1.7 nM at chemokine receptor CCR3 and 1.8 nM in assay [1]. Turning to `CC[N+]1(CC2=CCCCCCC2)CCC(NC(=O)C2c3cc(Cl)ccc3Oc3ccc(Cl)cc32)CC1` (stereo not drawn) [Example 62 (named cis for convenience), cis*-1-(1-cyclooctenylmethyl)-1-ethyl-4-(2,7-dichloroxanthene-9-carboxamido)piperidinium bromide], the IC50 at chemokine receptor CCR3 was determined as 0.74 nM; in assay [1] it was 1.8 nM.

In the case of `C=C[C@@]1(C)CC(=O)[C@]2(O)[C@@]3(C)[C@@H](O)CCC(C)(C)[C@@H]3[C@H](O)[C@H](OC(C)=O)[C@@]2(C)O1` [Forskolin, reference compound], the cAMP concentration with chemokine receptor CCR1 (setting [2]) is on record as 67.8 +/- 8.4 pmol/10^6 cells.

B1: hMIP - 1 alpha: chemokine (polypeptidic leukocytic migration factor), agonist used at 100 nM (protein, UniProt P10147 24-92, looked up)
C-C motif chemokine 3: SLAADTPTACCFSYTSRQIPQNFIADYFETSSQCSKPGVIFLTKRSRQVCADPSEEWVQKYVSDLELSA
For B1, the cAMP concentration with chemokine receptor CCR1 (setting [2]) is given as 47.7 +/- 4.2 pmol/10^6 cells.

(Values after patent US6140338A, “Chemokine receptor antagonists” (Banyu Pharmaceutical, Co., Ltd., priority 1996, dated 2000).)
